The source of these data is patent publication US9133434B1, “Grass endophyte” (Cropmark Seeds Ltd., priority 2012, dated 2015).

Each structure is given as a SMILES string.

The test system of assay [1] is Neotyphodium uncinatum, var.UNC1. The assay can be described thus: Effect of benomyl on growth, comparison of varieties. The following applies: comparison of the two varieties. Type of assay: cell-based. The procedure: (§1) Plates of PDA containing different concentrations of the fungicide benomyl were prepared as outlined by Christensen et al. (1991). Benlate(Methyl[1-[(butylamino)carbonyl]-1H-benzimidazol-2-yl]carbamate) (50% WP) was added to PDA prior to sterilization. Concentrations of benomyl were adjusted to 1, 5, 10, 50 and 100 ppm. Five duplicate plates were inoculated with a colony plug.
The two varieties were similar in tested characteristics of colony sporulation, colony sectoring, colony color (upper surface), colony shape, colony immersion or margin in agar, colony texture, aerial mycelium density and type, and effect of benomyl on growth. The two varieties differed in […] and rate of growth.

The test system of assay [2] is Neotyphodium uncinatum, var. U2. The assay can be described thus: Colony: resistance to benomyl on growth (PDA plates with benomyl). In kind it is cell-based. The following applies: benomyl 1, 5, 10, 50 and 100 ppm in PDA, recorded after 4 weeks; scale absent or very weak / weak / medium / strong / very strong. As to the method:
Neotyphodium uncinatum, var. U2 was isolated from line FP102 of Festuca pratensis (Meadow fescue). Line FP102 originally came from Norway in 1999. Characteristics for Neotyphodium uncinatum, var. U2 were determined and compared with other varieties. For these tests, the endophytic fungus isolated was cultured on 1.5% (w/v) potato dextrose agar at 20° C. in the dark (Christensen M J, Latch G C M, Tapper S A 1991: Variation within isolates of Acremonium endophytes from perennial ryegrasses. Mycol. Res. 95: 918-923). Length of cultivation was generally standardized at 4 weeks, but may be varied according to the isolate. Five plates of each strain were grown.
as §1

For `CCCCNC(=O)n1c(NC(=O)OC)nc2ccccc21` [benomyl, Methyl[1-[(butylamino)carbonyl]-1H-benzimidazol-2-yl]carbamate], the “effect of benomyl on growth, var.UNC1 compared with var. U2” value in assay [1] is reported as “similar”. In addition, the “Colony: resistance to benomyl on growth” value in assay [2] is “strong”.
